From PMC4295395, “An open label pilot study to evaluate the efficacy of Spanish black radish on the induction of phase I and phase II enzymes in healthy male subjects” (BMC Complementary and Alternative Medicine, 2014)

What was measured:
[1] = Urine acetaminophen and metabolite profile (HPLC) after 1000 mg acetaminophen, at week 0 and after 4 weeks of SBR supplementation; format: in vivo, human; settings: for Urine concentration at time points, week 4 vs week 0 (in words): 0, 2, 4, 6, 8 h after 1000 mg acetaminophen, after 4 weeks SBR; for Increase of urine levels (AUC0-8h) from week 0 to week 4: after 4 weeks SBR supplementation, 1000 mg acetaminophen
Method: (§1) Participants returned to the clinic for their 8-hour in-clinic baseline visit (week 0) at which time their heart rate and blood pressure were measured and BMI calculated. […] Meals were provided after the pre-dose and 4-hour blood collection. After the 8-hour test period, participants received 3-day food records and paper diaries for recording their study product use, changes in concomitant therapies, and any side effects/changes in health conditions.
(§2) Participants returned to the clinic in a fasting state at 28 days post-baseline (week 4) for an 8-hour in-clinic test at which time heart rate and blood pressure were measured and BMI was calculated. […] Meals were provided after the pre-dose and the 4-hour blood collection. Subjects were required to consume the same meal items on each of the 8-hour test days.
At baseline and week 4, urine was collected in separate containers at 2 hour intervals between 0 and 8 hours, aliquoted into 1.0 mL volumes and stored below -40°C until HPLC analysis. Urine samples were prepared for HPLC analysis by adding 750 μl of Milli Q water to 250 μl of urine and vortexed. The preparation was centrifuged at 1800 g for 10 min and 20 μl of the preparation was injected into the HPLC system.
Paracetamol (5000 μg, A5000, Sigma-Aldrich), paracetamol glucuronide (5000 μg, A4438, Sigma-Aldrich), paracetamol sulfate (5000 μg, A161230, Toronto Research Chemical) or paracetamol mercapturate (5000 μg, A172100, Toronto Research Chemical) were added to 1 ml of a Milli Q water/methanol mixture (50:50 v/v). Serial dilutions of each stock solution were prepared in urine devoid of paracetamol (blank) to give the following concentrations: 2500 μg/ml, 1250 μg/ml, 625 μg/ml, 312.5 μg/ml, 156.25 μg/ml, 78.15 μg/ml, 39.0625 μg/ml, 19.531 μg/ml, 9.766 μg/ml and 4.883 μg/ml by serial dilution.
(§3) The chromatography system comprised of a Varian Solvent Delivery module 210, injector Varian Auto Sampler model 410, Varian 335 Photo Diode Array Detector for detection and MS workstation software 6.4.1 for data acquisition. Reverse phase isocratic HPLC analysis was performed with a C18 column with particle size 4 μm (4.6x150 mm). The flow rate was 0.65-0.75 ml/minute and the detection was at 240–245 nm. A 0.1 M sodium phosphate buffer containing acetonitrile at a ratio of 10:90 (v/v) was used as the mobile phase for plasma analysis. A 1 M sodium phosphate buffer containing acetonitrile at a ratio of 5:95 (v/v) was used as mobile phase for urine analysis.
(§4) Statistical comparisons of maximum concentrations (Cmax) and area under the concentration time curve (AUC) were performed on log transformed data. A paired t-test was used to compare pre- and post-treatment measurements of safety end points: biometrics, vital signs, hematology and blood clinical chemistry parameters. SAS Version 9.1 was used to perform the statistical analysis, with probability values ≤0.05 considered statistically significant.

[2] = Plasma acetaminophen and metabolite profile (HPLC) after 1000 mg acetaminophen, at week 0 and after 4 weeks of SBR supplementation; settings: for Decrease of plasma AUC0-8h from week 0 to week 4: after 4 weeks SBR supplementation; for Decrease of plasma AUC0-8h from week 0 to week 4 / AUC(0-t) / Cmax / Tmax / Plasma AUC(0–8 hour) / Plasma Tmax / Plasma Cmax: 1000 mg acetaminophen; for Plasma Tmax, difference from week 0 to week 4: after 4 weeks SBR vs week 0, mean ± SD; for AUC(0-t) / Cmax / Tmax: male, human, plasma, oral, 1000 mg; for AUC(0-t): Plasma AUC(0–8 hour); for Cmax: Plasma Cmax; for Tmax: Plasma Tmax
Method: as §1, §2
The plasma was separated and aliquoted into 1.0 mL volume samples. These samples were stored below -40°C until high-performance […] chromatography (HPLC) analysis was performed. Plasma samples were prepared for HPLC analysis by adding 25 μl of 30% w/v aqueous perchloric acid (311413, Sigma-Aldrich, Toronto, Canada) to 250 μl of plasma in a 1.5 ml Eppendorf tube and then vortexed for 30 seconds and centrifuged at 1800 g for 10 min and 20 μl of clear supernatant was injected into the HPLC system.
Paracetamol (50 μg, A5000, Sigma-Aldrich, Toronto, Canada), paracetamol glucuronide (50 μg, A4438, Sigma-Aldrich, Toronto, Canada), or paracetamol sulfate (50 μg, A161230, Toronto Research Chemical Inc., Toronto, Canada) was added to 1 ml of Milli Q water/methanol mixture (50:50 v/v). NAPQI (50 μg, A170000, Toronto Research Chemical) was added to 1 ml acetonitrile. […] standard solutions were prepared in plasma devoid of paracetamol (blank) at the following concentrations: 25 μg/ml, 12.5 μg/ml, 6.25 μg/ml, 3.125 μg/ml, 1.56 μg/ml, 0.78 μg/ml and 0.39 μg/ml by serial dilution.
as §3, §4

[3] = after 4 weeks SBR vs week 0, mean ± SD
[4] = week 0 (before SBR), N=19, mean ± SD
[5] = week 4 (after 4 weeks SBR), N=19, mean ± SD
[6] = week 0 (before SBR), healthy males N=19, mean ± SD
[7] = week 4 (after 4 weeks SBR, 6 tablets daily), N=19, mean ± SD

Urine concentration at time points, week 4 vs week 0 (in words) [1] | Increase of urine levels (AUC0-8h) from week 0 to week 4 [1] [%] | Urine AUC(0–8 hour), difference from week 0 to week 4 [1, 3] [mg·h] | Urine Cmax, difference from week 0 to week 4 [1, 3] [mg] | Urine Tmax, difference from week 0 to week 4 [1, 3] [min] | AUC(0-t) [2, 4] [ng·h/mL] | AUC(0-t) [2, 5] [ng·h/mL] | Cmax [2, 6] [ng/mL] | Cmax [2, 7] [ng/mL] | Tmax [2, 4] [h] | Tmax [2, 5] [h] | Structure (SMILES) | Plasma concentration at time points, week 4 vs week 0 (in words) ([2]; 0, 2, 4, 6, 8 h after 1000 mg acetaminophen, after 4 weeks SBR) | Decrease of plasma AUC0-8h from week 0 to week 4 [2] [%] | Plasma Tmax, difference from week 0 to week 4 [2] [min] | Plasma AUC(0–8 hour) [2, 4] [µmol·h/L] | Plasma Tmax [2, 4] [h] | Plasma Cmax [2, 6] [µmol/L] | Plasma AUC(0–8 hour) [2, 5] [µmol·h/L] | Plasma Tmax [2, 5] [h] | Plasma Cmax [2, 7] [µmol/L]
no significant differences | 1 | -38.69 ± 342.45 | 19.57 ± 124.28 | 19.2 ± 100 | 58000 ± 14500 | 52800 ± 14100 | 12600 ± 4120 | 10800 ± 3090 | 2.13 ± 0.46 | 2.55 ± 1.13 | CC(=O)Nc1ccc(O[C@@H]2O[C@H](C(=O)O)[C@@H](O)[C@H](O)[C@H]2O)cc1 [Acetaminophen glucuronide] | decreased significantly at 2 h post-acetaminophen dose | 9 | 25.2 ± 75.6 | – | – | – | – | – | –
– | – | – | – | – | – | – | – | – | – | – | CC(=O)Nc1ccc(O)c(SC[C@H](NC(=O)CC[C@H](N)C(=O)O)C(=O)NCC(=O)O)c1 [NAPQI-GSH] | – | 9 | 0 ± 1.2 | 0.72 ± 0.31 | 2.03 ± 0.01 | 0.18 ± 0.09 | 0.66 ± 0.22 | 2.02 ± 0.01 | 0.18 ± 0.04
higher at all time points | 37 | 22.68 ± 44.43 | 4.82 ± 9.72 | – | – | – | – | – | – | – | CC(=O)Nc1ccc(O)c(SCC(N)C(=O)O)c1 (centres unmarked) [Acetaminophen mercapturate] | – | – | – | – | – | – | – | – | –
